This note sets out measurements from ChEMBL document CHEMBL4387741, “Optimization of novel reversible Bruton's tyrosine kinase inhibitors identified using Tethering-fragment-based screens” (Bioorg Med Chem, 2019).

Assay [1] has as its system Tyrosine-protein kinase ABL1 (Homo sapiens), P00519 [M351T]. The experiment in a line: Inhibition of human phosphorylated ABL1 M351T mutant (S229 to K512 residues) expressed in mammalian expression system at 1 uM by Kinomescan method relative to control.
Assay [2] has as its target Cyclin-dependent kinase 2 (Homo sapiens) (UniProt P24941). Nature of the assay: Inhibition of wild-type human full length CDK2 (M1 to L298 residues) expressed in bacterial expression system at 1 uM by Kinomescan method relative to control.
The target in assay [3] is Casein kinase I isoform gamma-1 (Homo sapiens) (UniProt Q9HCP0). Nature of the assay: Inhibition of wild-type human partial length CSNK1G1 (T15 to S353 residues) expressed in bacterial expression system at 1 uM by Kinomescan method relative to control.
Assay [4] addresses Casein kinase I isoform gamma-2 (Homo sapiens) (UniProt P78368). The experiment in a line: Inhibition of wild-type human full length CSNK1G2 (M1 to K415 residues) expressed in bacterial expression system at 1 uM by Kinomescan method relative to control.
In assay [5] the test system is Receptor-type tyrosine-protein kinase FLT3 (Homo sapiens), P36888 [D835V]. Nature of the assay: Inhibition of human partial length FLT3 D835V mutant (V592 to Y969 residues) expressed in bacterial expression system at 1 uM by Kinomescan method relative to control.
Assay [6] concerns the target Serine/threonine-protein kinase MAK (Homo sapiens) (UniProt P20794). The experiment in a line: Inhibition of wild-type human partial length MAK (M1 to P314 residues) expressed in bacterial expression system at 1 uM by Kinomescan method relative to control.
In assay [7] the target is MAP/microtubule affinity-regulating kinase 3 (Homo sapiens) (UniProt P27448). Nature of the assay: Inhibition of wild-type human full length MARK3 (M1 to L729 residues) expressed in bacterial expression system at 1 uM by Kinomescan method relative to control.
Assay [8] deals with Maternal embryonic leucine zipper kinase (Homo sapiens) (UniProt Q14680). Nature of the assay: Inhibition of wild-type human full length MELK (M1 to V651 residues) expressed in bacterial expression system at 1 uM by Kinomescan method relative to control.
Assay [9] concerns the target Hepatocyte growth factor receptor (Homo sapiens) (UniProt P08581). Nature of the assay: Inhibition of wild-type human partial length MET (D1010 to S1367 residues) expressed in bacterial expression system at 1 uM by Kinomescan method relative to control.
Assay [10] concerns the target Mitogen-activated protein kinase kinase kinase 11 (Homo sapiens) (UniProt Q16584). The experiment in a line: Inhibition of wild-type human partial length MLK3 (I77 to W399 residues) expressed in bacterial expression system at 1 uM by Kinomescan method relative to control.
Assay [11] deals with Serine/threonine-protein kinase Nek7 (Homo sapiens) (UniProt Q8TDX7). Nature of the assay: Inhibition of wild-type human full length NEK7 (M1 to S302 residues) expressed in bacterial expression system at 1 uM by Kinomescan method relative to control.
The subject of assay [12] is Phosphatidylinositol 4,5-bisphosphate 3-kinase catalytic subunit alpha isoform (Homo sapiens), P42336 [H1047L]. Nature of the assay: Inhibition of human partial length PIK3CA H1047L mutant (R108 to N1068 residues) expressed in mammalian expression system at 1 uM by Kinomescan method relative to control.
For assay [13], the target named is Serine/threonine-protein kinase PknB (Mycobacterium tuberculosis) (UniProt P9WI81). Nature of the assay: Inhibition of wild-type Mycobacterium tuberculosis partial length PKNB (M1 to G279 residues) expressed in mammalian expression system at 1 uM by Kinomescan method relative to control.
For assay [14], the target named is Serine/threonine-protein kinase SIK3 (Homo sapiens) (UniProt Q9Y2K2). Nature of the assay: Inhibition of wild-type human partial length QSK (A90 to L395 residues) expressed in mammalian expression system at 1 uM by Kinomescan method relative to control.
Assay [15] addresses Serine/threonine-protein kinase TAO2 (Homo sapiens) (UniProt Q9UL54). Nature of the assay: Inhibition of wild-type human partial length TAOK2 (M1 to A320 residues) expressed in mammalian expression system at 1 uM by Kinomescan method relative to control.
Assay [16] concerns the target Tyrosine-protein kinase ZAP-70 (Homo sapiens) (UniProt P43403). The experiment in a line: Inhibition of wild-type human partial length ZAP70 (D20 to G299 residues) expressed in mammalian expression system at 1 uM by Kinomescan method relative to control.
Assay [17] relates to Tyrosine-protein kinase ABL1 (Homo sapiens), P00519 [Q252H]. Nature of the assay: Inhibition of human non-phosphorylated ABL1 Q252H mutant (S229 to K512 residues) expressed in mammalian expression system at 10 uM by Kinomescan method relative to control.
The target of assay [18] is Peripheral plasma membrane protein CASK (Homo sapiens) (UniProt O14936). The experiment in a line: Inhibition of wild-type human partial length CASK (M1 to H315 residues) expressed in mammalian expression system at 10 uM by Kinomescan method relative to control.
Chain of Peripheral plasma membrane protein CASK (Homo sapiens) (O14936 whole entry, the tested form may be a part): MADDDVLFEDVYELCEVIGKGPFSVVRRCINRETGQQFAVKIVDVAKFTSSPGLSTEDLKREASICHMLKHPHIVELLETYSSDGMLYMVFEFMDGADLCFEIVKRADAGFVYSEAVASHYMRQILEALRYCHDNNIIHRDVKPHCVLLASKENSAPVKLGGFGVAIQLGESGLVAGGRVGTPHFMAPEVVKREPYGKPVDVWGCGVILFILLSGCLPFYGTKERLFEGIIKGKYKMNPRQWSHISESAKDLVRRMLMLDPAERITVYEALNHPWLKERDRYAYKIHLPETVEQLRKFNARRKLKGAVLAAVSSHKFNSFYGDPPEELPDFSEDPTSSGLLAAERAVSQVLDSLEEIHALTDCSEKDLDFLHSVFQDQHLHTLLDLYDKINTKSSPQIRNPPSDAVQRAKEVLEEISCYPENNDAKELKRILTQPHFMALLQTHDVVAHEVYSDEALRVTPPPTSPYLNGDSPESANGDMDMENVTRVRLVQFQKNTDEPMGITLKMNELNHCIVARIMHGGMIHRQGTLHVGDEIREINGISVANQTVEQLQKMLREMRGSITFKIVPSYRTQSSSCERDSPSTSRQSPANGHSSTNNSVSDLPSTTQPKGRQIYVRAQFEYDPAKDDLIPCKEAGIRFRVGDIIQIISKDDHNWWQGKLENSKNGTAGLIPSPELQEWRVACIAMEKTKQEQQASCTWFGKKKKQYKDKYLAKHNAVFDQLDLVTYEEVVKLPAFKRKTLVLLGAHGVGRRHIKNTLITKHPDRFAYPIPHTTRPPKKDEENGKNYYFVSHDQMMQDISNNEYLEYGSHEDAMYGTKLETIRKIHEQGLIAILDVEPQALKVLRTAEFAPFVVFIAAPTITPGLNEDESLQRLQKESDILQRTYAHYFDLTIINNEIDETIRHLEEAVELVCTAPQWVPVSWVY
Assay [19] concerns the target Cyclin-dependent kinase 13 (Homo sapiens) (UniProt Q14004). Nature of the assay: Inhibition of wild-type human partial length CDC2L5 (H675 to S1054 residues) expressed in mammalian expression system at 10 uM by Kinomescan method relative to control.
Assay [20] has as its target Receptor tyrosine-protein kinase erbB-2 (Homo sapiens) (UniProt P04626). Nature of the assay: Inhibition of wild-type human partial length ERBB2 (K646 to V1225 residues) expressed in mammalian expression system at 10 uM by Kinomescan method relative to control.
The target in assay [21] is Tyrosine-protein kinase ITK/TSK (Homo sapiens) (UniProt Q08881). The experiment in a line: Inhibition of wild-type human partial length ITK (R335 to L620 residues) expressed in bacterial expression system at 10 uM by Kinomescan method relative to control.
Chain of Tyrosine-protein kinase ITK/TSK (Homo sapiens) (Q08881 whole entry, the tested form may be a part): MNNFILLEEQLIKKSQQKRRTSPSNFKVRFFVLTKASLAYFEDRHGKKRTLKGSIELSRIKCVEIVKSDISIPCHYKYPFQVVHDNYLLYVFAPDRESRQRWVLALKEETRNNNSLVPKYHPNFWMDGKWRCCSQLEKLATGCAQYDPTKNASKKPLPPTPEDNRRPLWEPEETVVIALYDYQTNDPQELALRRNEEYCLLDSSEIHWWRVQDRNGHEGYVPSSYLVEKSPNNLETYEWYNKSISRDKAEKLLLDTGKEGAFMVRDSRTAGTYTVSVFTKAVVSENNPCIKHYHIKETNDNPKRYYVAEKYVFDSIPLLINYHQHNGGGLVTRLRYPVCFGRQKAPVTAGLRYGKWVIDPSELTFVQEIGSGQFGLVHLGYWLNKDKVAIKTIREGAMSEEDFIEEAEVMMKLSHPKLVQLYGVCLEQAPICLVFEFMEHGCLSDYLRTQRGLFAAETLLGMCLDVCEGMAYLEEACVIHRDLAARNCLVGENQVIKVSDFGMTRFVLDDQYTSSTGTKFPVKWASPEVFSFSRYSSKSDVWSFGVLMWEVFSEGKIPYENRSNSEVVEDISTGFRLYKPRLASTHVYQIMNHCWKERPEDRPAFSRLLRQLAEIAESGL
Assay [22] concerns the target Mitogen-activated protein kinase kinase kinase kinase 4 (Homo sapiens) (UniProt O95819). The experiment in a line: Inhibition of wild-type human partial length MAP4K4 (M1 to R310 residues) expressed in bacterial expression system at 10 uM by Kinomescan method relative to control.
Assay [23] deals with Serine/threonine-protein kinase MARK1 (Homo sapiens) (UniProt Q9P0L2). Nature of the assay: Inhibition of wild-type human partial length MARK1 (Q30 to T341 residues) expressed in bacterial expression system at 10 uM by Kinomescan method relative to control.
Assay [24] addresses Macrophage-stimulating protein receptor (Homo sapiens) (UniProt Q04912). Nature of the assay: Inhibition of wild-type human partial length MST1R (I1057 to L1363 residues) expressed in bacterial expression system at 10 uM by Kinomescan method relative to control.
The target of assay [25] is Myosin light chain kinase, smooth muscle (Homo sapiens) (UniProt Q15746). Nature of the assay: Inhibition of wild-type human full length MYLK (M854 to E1845 residues) expressed in mammalian expression system at 10 uM by Kinomescan method relative to control.
Assay [26] concerns the target Serine/threonine-protein kinase RIO1 (Homo sapiens) (UniProt Q9BRS2). Nature of the assay: Inhibition of wild-type human full length RIOK1 (M1 to K568 residues) expressed in bacterial expression system at 10 uM by Kinomescan method relative to control.
Assay [27] deals with Testis-specific serine/threonine-protein kinase 3 (Homo sapiens) (UniProt Q96PN8). Nature of the assay: Inhibition of wild-type human full length TSSK3 (M1 to T268 residues) expressed in mammalian expression system at 10 uM by Kinomescan method relative to control.

Molecules are shown by their SMILES.

Chain of Serine/threonine-protein kinase TAO2 (Homo sapiens) (Q9UL54 whole entry, the tested form may be a part): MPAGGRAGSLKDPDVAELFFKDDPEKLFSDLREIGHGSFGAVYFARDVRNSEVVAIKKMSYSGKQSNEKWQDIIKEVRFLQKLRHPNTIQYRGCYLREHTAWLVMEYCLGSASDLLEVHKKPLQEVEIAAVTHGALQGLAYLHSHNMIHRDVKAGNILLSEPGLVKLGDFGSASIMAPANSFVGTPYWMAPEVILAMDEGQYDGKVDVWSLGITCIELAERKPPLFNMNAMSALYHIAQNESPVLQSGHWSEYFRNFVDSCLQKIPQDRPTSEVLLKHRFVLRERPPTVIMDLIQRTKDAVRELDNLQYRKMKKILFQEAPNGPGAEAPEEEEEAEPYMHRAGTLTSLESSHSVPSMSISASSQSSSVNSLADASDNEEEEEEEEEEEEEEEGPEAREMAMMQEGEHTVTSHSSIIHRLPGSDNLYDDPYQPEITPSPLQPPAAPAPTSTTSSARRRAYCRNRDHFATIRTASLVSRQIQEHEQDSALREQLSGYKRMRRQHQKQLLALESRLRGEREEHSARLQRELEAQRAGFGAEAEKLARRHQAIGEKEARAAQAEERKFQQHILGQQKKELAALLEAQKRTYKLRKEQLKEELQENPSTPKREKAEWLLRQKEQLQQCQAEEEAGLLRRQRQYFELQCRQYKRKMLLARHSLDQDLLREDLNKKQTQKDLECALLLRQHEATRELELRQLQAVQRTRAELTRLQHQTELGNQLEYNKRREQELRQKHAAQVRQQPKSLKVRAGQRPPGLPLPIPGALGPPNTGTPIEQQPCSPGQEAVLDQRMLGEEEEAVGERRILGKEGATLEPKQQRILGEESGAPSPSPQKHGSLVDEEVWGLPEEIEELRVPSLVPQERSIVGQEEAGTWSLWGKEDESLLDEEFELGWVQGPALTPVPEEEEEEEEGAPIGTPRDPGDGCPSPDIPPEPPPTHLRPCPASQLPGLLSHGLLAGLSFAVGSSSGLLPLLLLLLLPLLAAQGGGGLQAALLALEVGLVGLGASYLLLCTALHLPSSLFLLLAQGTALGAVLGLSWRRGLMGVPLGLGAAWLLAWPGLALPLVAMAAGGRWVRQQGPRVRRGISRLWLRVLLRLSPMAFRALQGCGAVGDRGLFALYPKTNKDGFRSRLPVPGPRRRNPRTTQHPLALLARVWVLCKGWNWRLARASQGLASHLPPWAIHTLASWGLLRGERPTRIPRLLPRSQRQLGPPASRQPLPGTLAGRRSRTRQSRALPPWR
Chain of Cyclin-dependent kinase 13 (Homo sapiens) (Q14004 whole entry, looked up, the tested form may be a part): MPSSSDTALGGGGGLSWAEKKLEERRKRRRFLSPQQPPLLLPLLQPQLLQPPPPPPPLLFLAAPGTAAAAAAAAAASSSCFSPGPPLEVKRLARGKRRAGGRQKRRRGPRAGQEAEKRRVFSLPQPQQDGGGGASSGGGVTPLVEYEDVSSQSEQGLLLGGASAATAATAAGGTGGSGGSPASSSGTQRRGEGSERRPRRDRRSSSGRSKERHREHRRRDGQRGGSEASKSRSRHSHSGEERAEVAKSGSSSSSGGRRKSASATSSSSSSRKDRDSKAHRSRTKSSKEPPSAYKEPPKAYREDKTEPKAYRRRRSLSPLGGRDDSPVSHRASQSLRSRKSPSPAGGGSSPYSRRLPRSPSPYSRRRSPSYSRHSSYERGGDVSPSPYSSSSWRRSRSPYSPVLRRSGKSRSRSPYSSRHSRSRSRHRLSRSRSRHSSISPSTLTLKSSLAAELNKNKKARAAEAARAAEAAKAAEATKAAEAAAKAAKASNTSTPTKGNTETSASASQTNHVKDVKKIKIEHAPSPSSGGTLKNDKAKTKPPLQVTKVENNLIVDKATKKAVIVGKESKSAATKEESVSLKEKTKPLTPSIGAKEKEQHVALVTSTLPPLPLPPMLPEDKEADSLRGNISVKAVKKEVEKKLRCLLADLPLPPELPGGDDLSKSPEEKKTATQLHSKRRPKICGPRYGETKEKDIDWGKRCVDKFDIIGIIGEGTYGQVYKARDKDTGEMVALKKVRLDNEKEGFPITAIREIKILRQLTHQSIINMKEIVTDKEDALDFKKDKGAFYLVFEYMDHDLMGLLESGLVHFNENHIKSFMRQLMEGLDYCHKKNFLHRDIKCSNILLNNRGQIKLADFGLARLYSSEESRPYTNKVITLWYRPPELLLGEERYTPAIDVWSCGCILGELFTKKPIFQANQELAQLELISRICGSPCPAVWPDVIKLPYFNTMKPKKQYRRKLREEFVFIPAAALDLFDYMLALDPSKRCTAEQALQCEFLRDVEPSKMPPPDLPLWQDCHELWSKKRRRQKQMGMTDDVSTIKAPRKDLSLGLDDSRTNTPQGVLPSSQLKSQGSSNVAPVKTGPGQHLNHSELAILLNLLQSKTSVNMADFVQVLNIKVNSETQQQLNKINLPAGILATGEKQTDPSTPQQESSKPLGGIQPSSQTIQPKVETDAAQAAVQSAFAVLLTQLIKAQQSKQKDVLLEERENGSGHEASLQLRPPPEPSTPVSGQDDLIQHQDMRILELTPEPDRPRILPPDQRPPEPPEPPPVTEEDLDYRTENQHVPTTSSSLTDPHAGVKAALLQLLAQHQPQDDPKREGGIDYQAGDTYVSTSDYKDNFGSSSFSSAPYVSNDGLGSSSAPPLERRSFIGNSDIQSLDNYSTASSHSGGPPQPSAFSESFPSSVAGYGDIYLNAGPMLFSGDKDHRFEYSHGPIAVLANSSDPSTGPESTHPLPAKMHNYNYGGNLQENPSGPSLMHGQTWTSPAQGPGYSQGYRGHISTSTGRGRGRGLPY
Chain of Tyrosine-protein kinase ZAP-70 (Homo sapiens) (P43403 whole entry, the tested form may be a part): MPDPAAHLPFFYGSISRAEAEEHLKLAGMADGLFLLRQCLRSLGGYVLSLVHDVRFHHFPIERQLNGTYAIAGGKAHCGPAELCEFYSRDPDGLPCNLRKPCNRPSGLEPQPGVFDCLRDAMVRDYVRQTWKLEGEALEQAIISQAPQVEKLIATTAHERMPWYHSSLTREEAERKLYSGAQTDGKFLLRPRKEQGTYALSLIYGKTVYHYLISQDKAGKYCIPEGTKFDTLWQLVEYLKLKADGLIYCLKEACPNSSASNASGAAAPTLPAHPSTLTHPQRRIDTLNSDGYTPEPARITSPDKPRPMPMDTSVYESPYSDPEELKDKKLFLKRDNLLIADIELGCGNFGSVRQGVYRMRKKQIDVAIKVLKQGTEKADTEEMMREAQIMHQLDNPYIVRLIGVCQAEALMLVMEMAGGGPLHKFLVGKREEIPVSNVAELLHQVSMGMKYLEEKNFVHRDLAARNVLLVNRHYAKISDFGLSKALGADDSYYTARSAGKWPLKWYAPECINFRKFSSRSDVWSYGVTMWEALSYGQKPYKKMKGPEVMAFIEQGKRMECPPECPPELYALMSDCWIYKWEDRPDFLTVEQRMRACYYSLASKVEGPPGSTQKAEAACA

Take `O=C(Nc1cccc([C@@H]2CN(c3ncnc4[nH]ccc34)CCN2CCO)c1)Nc1c(F)cccc1N1CCCC1`: the inhibition in [1] stood at 90%; in [2], 99%; in [3], 100%; in assay [4], 100%; in [5], 11%; in assay [6], 94%. Moreover, the inhibition stood at 100% in assay [7]; 23% in [8]; 95% in assay [9]; 100% in assay [10]; 92% in assay [11]; 100% in [12]. Further, the inhibition was found to be 80% in [13], 93% in assay [14], 85% in [15] and 80% in assay [16].

On to `O=C(Nc1cccc([C@H]2CCCN(c3ncnc4[nH]ccc34)C2)c1)Nc1ccccc1N1CCCC1`, for which the inhibition worked out at 25% in [17]; 85% in [18]; 97% in assay [19]; 55% in assay [20]; 7% in [21]; 100% in assay [22]. Besides, the inhibition in [23] was 81%; in assay [24], 100%; in [25], 83%; in assay [26], 0%; in assay [27], 85%.

As usually defined, the inhibition is the relative decrease from the control value, in per cent.
